For this assay, the target named is T1, EPHA6 (Homo sapiens, UniProt Q9UF33).
T1 construct: purchased Thermo Fisher Scientific (Life Technologies) SelectScreen
The assay is described as follows: SelectScreen LanthaScreen. In kind it is binding. To be noted: read-out: % displacement. The method, boiled down:
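NU5455 was profiled across the SelectScreen Broad panel of kinase activity and binding assays. Z'LYTE reactions such as CSF1R ran at apparent Km ATP, while the Adapta CAMK1 assay used ATP listed as 10. Values are given as percent.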
In general terms: TR-FRET usually uses a lanthanide donor and a delayed reading to cut background.

SMILES strings stand for the structures.

T1 sequence (Q9UF33 23-1036): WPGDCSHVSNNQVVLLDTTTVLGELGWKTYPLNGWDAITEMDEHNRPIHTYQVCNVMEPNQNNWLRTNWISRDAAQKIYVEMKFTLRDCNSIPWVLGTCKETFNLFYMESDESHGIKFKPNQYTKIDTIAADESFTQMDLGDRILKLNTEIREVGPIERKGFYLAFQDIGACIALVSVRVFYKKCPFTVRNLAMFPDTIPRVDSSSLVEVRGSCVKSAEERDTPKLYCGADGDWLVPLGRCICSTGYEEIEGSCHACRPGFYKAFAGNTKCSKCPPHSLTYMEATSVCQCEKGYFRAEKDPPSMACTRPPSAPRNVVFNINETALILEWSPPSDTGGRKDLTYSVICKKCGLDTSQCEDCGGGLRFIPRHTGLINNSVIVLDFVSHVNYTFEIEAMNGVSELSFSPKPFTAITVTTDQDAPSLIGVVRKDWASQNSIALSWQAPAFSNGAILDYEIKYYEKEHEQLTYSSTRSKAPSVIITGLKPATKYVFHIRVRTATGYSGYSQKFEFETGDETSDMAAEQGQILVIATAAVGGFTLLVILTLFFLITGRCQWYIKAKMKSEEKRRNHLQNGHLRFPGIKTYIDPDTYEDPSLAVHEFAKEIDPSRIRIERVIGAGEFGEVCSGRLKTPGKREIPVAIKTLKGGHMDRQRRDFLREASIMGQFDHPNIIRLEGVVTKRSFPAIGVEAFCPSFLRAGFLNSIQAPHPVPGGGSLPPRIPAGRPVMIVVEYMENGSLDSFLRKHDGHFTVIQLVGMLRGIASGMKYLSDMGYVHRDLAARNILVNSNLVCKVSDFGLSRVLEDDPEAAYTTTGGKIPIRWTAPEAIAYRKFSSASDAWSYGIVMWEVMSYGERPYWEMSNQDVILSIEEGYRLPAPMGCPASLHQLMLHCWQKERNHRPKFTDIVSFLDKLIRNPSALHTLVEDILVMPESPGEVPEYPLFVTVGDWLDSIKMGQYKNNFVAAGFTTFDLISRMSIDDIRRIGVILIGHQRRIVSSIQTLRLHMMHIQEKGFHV

For the compound `CN(C(=O)CN1CCOCC1)c1ccc2sc3c(-c4cccc5c(=O)cc(N6CC7CCC(C6)O7)oc45)cccc3c2c1` [NU5455], the inhibition at 1 µM is 1.6%.

These data come from PMC6934184, “Selective DNA-PKcs inhibition extends the therapeutic index of localized radiotherapy and chemotherapy” (The Journal of Clinical Investigation, 2019).
